Reference: US20230173090A1, “COMPOSITIONS AND METHODS FOR MODULATING DOPAMINE RECEPTOR ACTIVITY” (The Regents of the University of California, priority 2020, published 2023)

What was measured:
[1] = Photophysical properties (absorbance, photoswitching); format: physicochemical
Protocol: FIGS. 8A-8D. Photophysical properties of P-D1ago. (A) Absorbance spectra of P-D1ago under blue light (460 nm; blue) and UV light (370 nm; grey). (B) P-D1ago repeatedly switches from its trans to cis isomer with UV light and back to trans with blue light. […] Cells were incubated for 1 hour with vehicle (left upper panels), 1 µM surface block (left middle panels), or 1 µM P-D1ago (left lower panels), and were then labeled for 30 minutes with 1.5 µM BG-Alexa647. Cytosolic tdTomato was used as a transfection marker, grey bar = […]. A summary of labeling according to flow cytometry is shown on the right. unpaired two-sided t-test, p = 0.60. n = 3-6 replicates per condition. (D) M labeling as a function of the concentration of P-D1ago. The M was incubated for 1 hour with increasing concentrations of P-D1ago, and then labeled for 30 minutes with 1.5 µM BG-Alexa647. Labeling was measured by flow cytometry. (E) Time course of M labeling with P-D1ago. The M was incubated for different times with 1 µM P-D1ago, and then labeled for 30 minutes with 1.5 µM BG-Alexa647. Labeling was measured by flow cytometry. n = 3-4 replicates per condition. […] This contrasts with the commercially available permeant benzylguanine analog, cell block. […] Cytosolic mTurquoise was used as a transfection marker, grey bar = […]. A summary of labeling according to flow cytometry is shown on the right. unpaired two-sided t-test, ***p < 0.001. n = 3 replicates per condition.

GIRK channels = target: T1, GIRK channels (Homo sapiens, UniProt P48549, F137S); details: 1 µM P-D1ago labeled cells without D1R; % of 3 mM BaCh, a GIRK channel blocker; n = 5 cells
T1 sequence (P48549 1-501 F137S): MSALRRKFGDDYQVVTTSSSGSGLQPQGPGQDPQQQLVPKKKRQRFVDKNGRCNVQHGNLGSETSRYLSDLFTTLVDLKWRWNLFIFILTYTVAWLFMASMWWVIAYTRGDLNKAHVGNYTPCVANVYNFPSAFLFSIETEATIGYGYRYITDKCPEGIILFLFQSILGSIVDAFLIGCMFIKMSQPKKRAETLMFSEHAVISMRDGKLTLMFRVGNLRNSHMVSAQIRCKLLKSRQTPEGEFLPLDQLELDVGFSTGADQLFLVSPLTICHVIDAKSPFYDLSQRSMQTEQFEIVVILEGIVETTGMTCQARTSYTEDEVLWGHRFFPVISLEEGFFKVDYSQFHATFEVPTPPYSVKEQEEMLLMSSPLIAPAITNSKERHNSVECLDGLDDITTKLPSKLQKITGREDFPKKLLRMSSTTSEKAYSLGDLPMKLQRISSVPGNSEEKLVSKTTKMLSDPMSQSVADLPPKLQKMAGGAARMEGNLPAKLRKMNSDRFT

SNAP-D1R = target: T2, SNAP-D1R (Homo sapiens, UniProt P21728); assay: SNAP-D1R photoactivation, GIRK assay in HEK293T cells; format: cell-based; details: P-D1ago tethered to SNAP-tag fused to the N-terminus of D1R
T2 construct: expressed in transfected cells; host or cells: HEK293T
T2 sequence (P21728 with tags, fused parts or gaps): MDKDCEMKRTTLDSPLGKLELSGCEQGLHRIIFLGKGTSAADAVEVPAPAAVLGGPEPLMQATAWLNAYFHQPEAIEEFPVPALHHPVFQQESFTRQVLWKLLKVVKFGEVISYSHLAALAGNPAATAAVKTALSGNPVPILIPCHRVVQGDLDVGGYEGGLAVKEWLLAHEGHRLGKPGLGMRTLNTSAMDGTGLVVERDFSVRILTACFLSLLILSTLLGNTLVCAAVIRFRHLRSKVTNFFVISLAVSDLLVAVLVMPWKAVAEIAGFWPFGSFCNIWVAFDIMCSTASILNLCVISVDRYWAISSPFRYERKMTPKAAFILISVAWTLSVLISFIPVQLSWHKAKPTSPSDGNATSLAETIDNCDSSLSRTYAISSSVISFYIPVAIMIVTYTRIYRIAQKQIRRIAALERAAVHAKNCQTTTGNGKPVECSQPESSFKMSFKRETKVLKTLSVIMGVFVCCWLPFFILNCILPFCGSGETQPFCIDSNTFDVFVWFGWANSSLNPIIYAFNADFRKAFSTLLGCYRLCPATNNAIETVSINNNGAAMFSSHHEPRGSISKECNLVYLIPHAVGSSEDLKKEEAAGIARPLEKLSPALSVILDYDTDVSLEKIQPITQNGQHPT
Excerpt: To test the ability of P-D1ago to photo-activate D1R, it was attached directly to a version of D1R that has SNAP fused to its extracellular N-terminus, which is adjacent to the ligand binding site of the receptor. SNAP-D1R was co-expressed in HEK293T cells with the G protein-coupled inwardly rectifying potassium (GIRK) channel as an effector. […] P-D1ago was attached to the M, which was co-expressed in HEK293T cells with the native D1R and the GIRK channel. […] To optimize D1R photoactivation, the geometric positioning of P-D1ago was adjusted using variants of M with “lift” peptides between the SNAP-tag and transmembrane segment. Photoactivation increased with an M variant containing a rigid, α-helical EAAAK (SEQ ID NO: 13) peptide (MEAAAK (SEQ ID NO: 16); FIG. 2B, C, and E) and decreased as the lift peptide was further extended (FIGS. 11D-11F), presumably because P-D1ago “rises” too far from the cell surface.
FIGS. 10A-10C. […] (A) Schematic representation of P-D1ago tethered to a SNAP-tag fused directly to the extracellular N-terminus of D1R. (B) Representative trace of SNAP-D1R photoactivation by P-D1ago according to the GIRK assay. […] (C) Summary of SNAP-D1R photoactivation by P-D1ago relative to a saturating concentration of DA (10 µM). n = 5 cells.

D1R = target: T3, D1R (Homo sapiens, UniProt P21728); assay: D1R-mediated cAMP accumulation assay (BRET sensor CAMYEL) in HEK293T cells; format: cell-based; details: FIGS. 9A-9H
T3 construct: expressed in transfected cells; host or cells: HEK293T (A1, A2); HEK293 (A26)
T3 sequence (P21728 whole entry): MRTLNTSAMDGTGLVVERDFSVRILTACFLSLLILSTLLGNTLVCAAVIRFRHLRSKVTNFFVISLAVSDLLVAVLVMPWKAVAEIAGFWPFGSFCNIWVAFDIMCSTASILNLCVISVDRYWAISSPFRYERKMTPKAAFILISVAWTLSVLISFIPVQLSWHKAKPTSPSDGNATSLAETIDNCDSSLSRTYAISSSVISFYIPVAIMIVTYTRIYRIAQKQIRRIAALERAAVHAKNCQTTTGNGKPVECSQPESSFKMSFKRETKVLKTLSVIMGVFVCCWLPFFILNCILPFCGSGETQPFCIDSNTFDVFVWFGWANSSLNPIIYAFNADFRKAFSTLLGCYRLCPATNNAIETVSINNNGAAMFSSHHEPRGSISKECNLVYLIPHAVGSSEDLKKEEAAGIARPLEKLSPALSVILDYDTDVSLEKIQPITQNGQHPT
Excerpt: FIGS. 9A-9H. Functional properties of untethered P-D1ago. (A) Schematic representation of a D1R-mediated G protein-coupled inwardly rectifying potassium (GIRK) channel assay in HEK293T cells. Agonist-induced receptor activation results in the recruitment of a heterotrimeric G protein containing the chimeric Gα subunit (Gαis) followed by the release of Gβγ, which activates GIRK channels and enhances inward-current. […]. (C) Representative traces of the effect of untethered P-D1ago on D1R in the absence of the membrane-anchor (M) according to the GIRK assay. […] (D) Summary of the functional effect of untethered P-D1ago on D1R in the GIRK assay. n = 4-5 cells per condition. (E) Schematic representation of a highly sensitive D1R-mediated cAMP accumulation assay in HEK293T cells. Agonist-induced D1R activation results in Gs/olfrecruitment followed by the binding of its Gα subunit to adenylate cyclase (AC), which enhances the conversion of ATP to cAMP. cAMP binds the bioluminescence resonance energy transfer 1 (BRET′)-based cAMP sensor CAMYEL^87, resulting in a conformational change in its Epac domain that increases the distance and decreases BRET^1 between the donor Renilla luciferase (Rluc) and the acceptor YFP. […]

## CCCN(CCc1ccc(N=Nc2ccc(NC(=O)CNC(=O)CCOCCOCCOCCOCCOCCOCCOCCOCCOCCOCCOCCOCCn3cc(CCC(=O)NCc4ccc(COc5nc(N)nc6nc[nH]c56)cc4)nn3)cc2)cc1)C1CCc2c(O)cccc2C1 (stereo not drawn) [P-D1ago, Benzylguanine-azobenzene-PPHT]
[1]; UV light
  wavelength switching trans-isomer to cis-isomer: 370 nm
[1]; blue light
  wavelength switching cis-isomer back to trans-isomer: 460 nm
[1]; in the dark after illumination with UV light
  stability of the cis state: stable in the cis state in the dark
GIRK channels
  effect of switching from UV light to blue light on basal current: 1.3 ± 1.0%
SNAP-D1R
  SNAP-D1R photoactivation: photoactivates D1R in response to blue light and is deactivated with UV light
D1R
  agonist profile at D1R in untethered form: low potency full agonist
